Data on 13 compounds can be found in ChEMBL document CHEMBL1156671, “QSAR studies on benzoylaminobenzoic acid derivatives as inhibitors of beta-ketoacyl-acyl carrier protein synthase III” (Eur J Med Chem, 2008).

Experiment [1] deals with Streptococcus pneumoniae. Description: Antibacterial activity against Streptococcus pneumoniae. In kind it is functional.
In experiment [2] the test system is Neisseria meningitidis. Description: Antibacterial activity against Neisseria meningitidis. The experiment is classed as functional.
Experiment [3] deals with Escherichia coli. In words: Antibacterial activity against Escherichia coli. The experiment is classed as functional.
Experiment [4] has as its system Staphylococcus aureus. Description: Antibacterial activity against Staphylococcus aureus. In kind it is functional.
Experiment [5] deals with T1, Beta-ketoacyl-[acyl-carrier-protein] synthase III (Enterococcus faecalis (strain ATCC 700802 / V583), UniProt Q820T1).
T1 sequence (Q820T1 whole entry): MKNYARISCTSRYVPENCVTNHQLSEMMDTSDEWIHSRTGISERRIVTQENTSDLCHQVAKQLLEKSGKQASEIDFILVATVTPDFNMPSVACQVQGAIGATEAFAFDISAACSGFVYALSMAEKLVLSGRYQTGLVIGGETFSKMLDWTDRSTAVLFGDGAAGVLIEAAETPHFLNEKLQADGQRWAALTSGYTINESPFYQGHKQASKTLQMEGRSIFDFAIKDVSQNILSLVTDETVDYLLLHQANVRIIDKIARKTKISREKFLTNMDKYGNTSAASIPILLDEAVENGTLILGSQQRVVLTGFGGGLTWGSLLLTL
Description: Inhibition of Enterococcus faecalis FabH by FabD/FabH coupled assay.

In the case of `O=C(Nc1ccccc1C(=O)O)c1ccc(-c2ccccc2)c(Oc2ccccc2)c1`, the “-logMIC” value in experiment [1] stood at 5.854; in experiment [2] it was 5.854; in experiment [3], 5.854; in experiment [4], 4.947.

`O=C(Nc1ccccc1C(=O)O)c1ccc(-c2ccc(C(F)(F)F)cc2)c(Oc2ccccc2)c1`: the “-logMIC” value in experiment [1] was 6.155; in experiment [2] it was 5.854; in experiment [3], 6.155; in experiment [4] it was 5.252.

Consider `CC(C)c1cccc(-c2ccc(C(=O)Nc3ccccc3C(=O)O)cc2Oc2ccccc2)c1`, for which the “-logMIC” value in experiment [1] is given as 5.854; in experiment [2] it was 5.854; in experiment [3], 5.553; in experiment [4] it was 5.252.

On to `O=C(Nc1ccccc1C(=O)O)c1ccc(-c2ccc(F)cc2F)c(Oc2ccccc2)c1`, for which the “-logMIC” value is on record as 5.553 in experiment [1], 6.444 in experiment [2], 6.155 in experiment [3] and 5.252 in experiment [4].

In the case of `CS(=O)(=O)c1ccc(-c2ccc(C(=O)Nc3ccccc3C(=O)O)cc2Oc2ccccc2)cc1`, the “-logMIC” value was 4.347 in experiment [1], 5.252 in experiment [2], 5.252 in experiment [3] and 4.347 in experiment [4].

For `Cc1cc(-c2ccc(C(=O)Nc3ccccc3C(=O)O)cc2Oc2ccccc2)ccc1Cl`, the “-logMIC” value in experiment [1] is reported as 5.553; in experiment [2] it was 6.155; in experiment [3], 6.155; in experiment [4] it was 5.252.

On to `CC1CC(C)CN(c2ccc(C(=O)Nc3ccccc3C(=O)O)cc2Oc2ccccc2)C1` (stereo not given), for which the “-logMIC” value in experiment [1] is listed as 5.553; in experiment [2] it was 5.553; in experiment [3], 5.252; in experiment [4], 5.252.

On to `Cc1cc(-c2ccc(C(=O)Nc3ccccc3C(=O)O)cc2Oc2ccccc2)ccc1F`, for which the “-logMIC” value was 6.155 in experiment [1], 6.155 in experiment [2], 6.155 in experiment [3] and 5.252 in experiment [4].

The IC50 is the concentration needed to halve the response being measured. High values mean weaker potency, low ones greater potency. Regarding `O=C(Nc1ccccc1C(=O)O)c1cc(O)c(Br)c(Oc2ccccc2)c1`, the “-logMIC” value in experiment [1] came out at 4.347; in experiment [2], 5.553; in experiment [3], 5.553; in experiment [4] it was 4.347. In experiment [5], this compound gave an IC50 of 62.1 nM.

`O=C(Nc1ccccc1C(=O)O)c1cc(O)c(-c2ccccc2)c(Oc2ccccc2)c1`: the “-logMIC” value in experiment [1] is 4.658; in experiment [2] it was 5.854; in experiment [3], 5.854; in experiment [4], 4.658. In addition, in experiment [5], the IC50 was 4 nM.

Regarding `O=C(Nc1ccccc1C(=O)O)c1cc(O)cc(Oc2ccccc2)c1`, the IC50 in experiment [5] is 410 nM. This lies in the sub-micromolar range.

`O=C(NC1=CCSC1C(=O)O)c1cccc(Oc2ccccc2)c1` (stereo not given) had an IC50 in experiment [5] of 10100 nM.

`O=C(NC1SC=CC1C(=O)O)c1cccc(Oc2ccccc2)c1` (stereo not given) gave an IC50 in experiment [5] of 43000 nM.
